The source of these data is patent US8466167B2, “Compounds and compositions as TLR activity modulators” (IRM LLC, priority 2008, dated 2013).

The test system of one assay is human PBMC. In words: Human peripheral blood mononuclear cell assay, IL-6 (IL-6 hPBMC). Type of assay: cell-based. As to conditions: IL-6 levels. The method, then:
The bioactivity of the described compounds are tested in the human peripheral blood assay (human PBMC) using a panel of independent normal human donors according to approved guidelines by the institutional review committee. Human PBMC are isolated from freshly peripheral blood using a Ficoll density gradient (GE healthcare 17-1440-03). 30-35 mLs of peripheral human blood are layered onto 15 mLs of Ficoll in 50 ml conical tubes, followed by centrifugation at 1800 rpm (Eppendorf Centrifuge 5810R with biohazard caps over the tube buckets) at room temperature for 30 minutes with no acceleration and no brake. The buffy layers are then collected and transferred onto new 50 ml conical tubes and washed twice in complete media consisting of RAMI 1640 (11875085 from Invitrogen Corporation, Carlsbad, Calif.) supplemented with 10% heat inactivated fetal bovine serum (Gibco 10099-141), 1% Pen-Strep (Gibco#15140-122), 1 mM non essential amino acids (Gibco#11140-050), 1 mM sodium pyruvate (Gibco#11360-070), 2 mM L-Glutamine (Gibco#25030-081) and 1 mM HEPES (Gibco#15630-080). Viable cells are then counted using trypan blue staining, plated in 96 well flat bottom plates (Becton Dickinson #353070) at 2×10^5 cells per well in 200 μl total volume of complete media. Compounds are then added in a 10 point dose response format starting at 100 μM, 3 fold dilution. Negative controls wells received equal concentration of DMSO. Culture supernatants are collected after 18-24 hours incubation at 37° C., 5% CO2, stored at −20° C. until further use.
IL-6 levels in the culture supernatants are measured using a Luminex kit (Biorad). Data analysis is performed using Prism software from GraphPad (San Diego, Calif.). Dose response curves are generated for each compound and EC50 values are determined as the concentration that gives 50% of the maximal signal.

The target of a further assay is T1, human TLR8 (Homo sapiens, UniProt Q9NR97).
T1 construct: expressed in transfected cells; host or cells: HEK 293
T1 sequence (Q9NR97 27-1041): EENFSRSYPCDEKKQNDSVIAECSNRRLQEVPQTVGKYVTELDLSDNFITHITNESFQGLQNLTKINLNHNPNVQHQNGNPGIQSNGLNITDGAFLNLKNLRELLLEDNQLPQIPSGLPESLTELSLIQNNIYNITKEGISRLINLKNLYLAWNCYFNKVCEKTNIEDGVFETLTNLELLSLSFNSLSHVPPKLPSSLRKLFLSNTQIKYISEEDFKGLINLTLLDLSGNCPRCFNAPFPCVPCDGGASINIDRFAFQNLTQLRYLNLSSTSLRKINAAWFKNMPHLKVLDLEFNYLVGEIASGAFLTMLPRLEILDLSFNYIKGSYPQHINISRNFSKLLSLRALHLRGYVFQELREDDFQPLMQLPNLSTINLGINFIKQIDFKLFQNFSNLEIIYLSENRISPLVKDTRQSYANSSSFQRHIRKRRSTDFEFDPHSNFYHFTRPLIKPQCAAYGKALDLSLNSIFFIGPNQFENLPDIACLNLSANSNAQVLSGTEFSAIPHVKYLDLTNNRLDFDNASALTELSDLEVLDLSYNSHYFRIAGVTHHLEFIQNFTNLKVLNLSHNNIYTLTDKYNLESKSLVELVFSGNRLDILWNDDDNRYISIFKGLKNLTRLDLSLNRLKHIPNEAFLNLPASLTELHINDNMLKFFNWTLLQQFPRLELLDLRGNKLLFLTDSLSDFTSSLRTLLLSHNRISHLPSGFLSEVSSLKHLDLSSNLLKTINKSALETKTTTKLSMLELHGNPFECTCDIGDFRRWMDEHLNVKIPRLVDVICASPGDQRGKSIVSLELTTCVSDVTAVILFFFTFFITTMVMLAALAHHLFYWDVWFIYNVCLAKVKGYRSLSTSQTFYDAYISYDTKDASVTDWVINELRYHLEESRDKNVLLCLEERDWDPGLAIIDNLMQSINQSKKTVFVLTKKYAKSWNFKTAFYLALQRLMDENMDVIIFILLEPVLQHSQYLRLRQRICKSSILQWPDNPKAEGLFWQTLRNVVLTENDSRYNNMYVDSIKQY
In words: Reporter gene assay, HEK293-TLR8 (NF-kB-driven luciferase). As to conditions: HEK293-TLR8; read-out: EC50 in HEK293-TLR8 assay. Type of assay: cell-based. The method, then: (§1) Human embryonic kidney 293 (HEK 293) cells are stably transfected with human TLR7 or TLR8 and an NF-kB-driven luciferase reporter vector (pNifty-Luciferase). As a control assay, normal Hek293 transfected with pNifty-Luc are used. Cells are cultured in DMEM supplemented with 2 mM L-glutamine, 10% heart inactivated FBS, 1% penicillin and streptomycin, 2 μg/ml puromycin (InvivoGen #ant-pr-5) and 5 μg/ml of blasticidin (Invitrogen #46-1120). Bright-Glo™ Luciferase assay buffer and substrate are supplied by Promega #E263B and #E264B (assay substrate and buffer respectively). 384 well clear-bottom plates are supplied by Greiner bio-one (#789163-G) and are GNF custom bar-coded plates.
(§2) Cells are plated at 25,000 cells/well in 384-well plates in a final volume of 50 μl of media. Cells are allowed to adhere to the plates after overnight (18 hours) culture at 37° C. 5% CO2. Serially diluted experimental and positive control compounds are then dispensed to each well and incubated for 7 hours at 37° C. 5% CO2. Cells stimulated with DMSO alone also serve as negative controls. After the incubation, 30 μl of the pre-mix assay buffer and substrate buffer are added to each well according to manufacturer's instructions. The luminescence signal is read on a CLIPR machine with an integration time of 20 seconds per plate.
(§3) Dose response curves are generated for each compound and EC50 values were determined as the concentration that gives 50% of the maximal signal.

In a further assay the target is T2, human TLR7 (Homo sapiens, UniProt Q9NYK1).
T2 construct: expressed in transfected cells; host or cells: HEK 293
T2 sequence (Q9NYK1 27-1049): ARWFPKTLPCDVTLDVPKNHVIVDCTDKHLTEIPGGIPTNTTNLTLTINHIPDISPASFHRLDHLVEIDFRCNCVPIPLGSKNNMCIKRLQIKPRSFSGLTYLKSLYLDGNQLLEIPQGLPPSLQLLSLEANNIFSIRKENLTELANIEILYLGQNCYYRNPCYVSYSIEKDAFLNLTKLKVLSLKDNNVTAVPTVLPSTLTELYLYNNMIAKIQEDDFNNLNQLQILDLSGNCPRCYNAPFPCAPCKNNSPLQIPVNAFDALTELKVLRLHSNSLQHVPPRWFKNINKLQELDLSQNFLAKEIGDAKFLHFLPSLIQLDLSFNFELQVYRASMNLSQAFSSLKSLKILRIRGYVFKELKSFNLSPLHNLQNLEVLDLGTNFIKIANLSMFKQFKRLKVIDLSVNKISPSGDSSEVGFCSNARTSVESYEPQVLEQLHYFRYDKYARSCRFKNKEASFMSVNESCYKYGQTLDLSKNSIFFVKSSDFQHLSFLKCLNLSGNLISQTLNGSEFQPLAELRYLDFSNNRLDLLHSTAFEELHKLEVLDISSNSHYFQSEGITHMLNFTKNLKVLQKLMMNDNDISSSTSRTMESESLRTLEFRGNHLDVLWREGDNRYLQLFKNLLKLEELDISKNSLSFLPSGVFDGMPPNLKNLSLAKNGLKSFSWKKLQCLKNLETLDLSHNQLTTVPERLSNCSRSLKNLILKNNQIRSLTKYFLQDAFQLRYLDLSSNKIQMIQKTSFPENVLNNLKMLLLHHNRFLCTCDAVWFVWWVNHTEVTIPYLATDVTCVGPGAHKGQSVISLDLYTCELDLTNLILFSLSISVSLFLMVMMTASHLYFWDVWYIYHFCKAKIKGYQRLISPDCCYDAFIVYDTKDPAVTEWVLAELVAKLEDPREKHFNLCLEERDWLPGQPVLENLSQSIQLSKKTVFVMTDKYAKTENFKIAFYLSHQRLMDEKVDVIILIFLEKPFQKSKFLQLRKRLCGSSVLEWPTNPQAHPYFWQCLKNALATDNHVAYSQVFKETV
In words: Reporter gene assay, HEK293-TLR7 (NF-kB-driven luciferase). It is filed as cell-based. The procedure:
as §1, §2, §3

In assay [1] the test system is N. meningitidis serogroup B strain NZ98. The experiment in a line: In vivo enhancement of immune response to 3MenB vaccine, serum bactericidal antibody (SBA) titer. As to conditions: for protective response in the mice (SBA titer of >1000 correlates with protection): 100 μg compound with 3MenB/MF59, NZ98 strain. The method, then:
In a second experiment, the dose response of one compound, Example No. 47, was tested using the same protocol. […] The SBA titers were measured in all cases using the standard CFU method. The dose of each compound in μg is indicated on the left of FIG. 2.
FIG. 5 summarizes the data from the six total experiments. A titer of >1000 correlates with immunization providing protection against the pathogen tested in the SBA titer (i.e., the NZ/98 N. meningitidis serogroup B strain).

Where [2] appears, read: HEK293-TLR7, read-out: EC50 in HEK293-TLR7 assay.

As a reminder, the EC50 is the concentration at which the effect is half-maximal.

Where two headings read alike, the source gives them in different places. Some results are limits rather than exact numbers.

As for `Nc1nc2ccccc2c2cccnc12` [Example 1, Benzo[f][1,7]naphthyridin-5-amine], the figures for the EC50 in the assay with human PBMC, at human TLR8 and on human TLR7 (setting [2]) were 0.84 µM, 14 µM and greater than 100 µM, respectively.

On to `Cc1ccc2c(c1)nc(N)c1ncccc12` [Example 5, 8-methylbenzo[f][1,7]naphthyridin-5-amine], for which the figures for the EC50 in the assay on human PBMC, at human TLR8 and on human TLR7 (setting [2]) were 0.396 µM, 9.01 µM and 15.8 µM, respectively.

With `Nc1nc2cc(F)ccc2c2cccnc12` [Example 14, 8-fluorobenzo[f][1,7]naphthyridin-5-amine], the EC50 with human PBMC turned out to be 6.38 µM; at human TLR8, 37 µM.

Turning to `CCc1cnc2c(N)nc3ccccc3c2c1` [Example 30, 2-ethylbenzo[f][1,7]naphthyridin-5-amine], the EC50 with human PBMC was 2.28 µM; at human TLR8, 13 µM; at human TLR7 (setting [2]), 8.64 µM.

For the compound `Nc1nc2ccccc2c2cc(CCc3ccccc3)cnc12` [Example 33, 2-phenethylbenzo[f][1,7]naphthyridin-5-amine], the EC50 turned out to be 2.28 µM in the assay on human PBMC and 2.44 µM on human TLR7 (setting [2]).

In the case of `Cc1ccc(CCc2cnc3c(N)nc4ccccc4c3c2)c(C)c1` [Example 47, 2-(2,4-dimethylphenethyl)benzo[f][1,7]naphthyridin-5-amine], the EC50 on human TLR7 (TLR-7 stimulation, read-out: Human TLR-7 EC50) was 0.361 µM. In assay [1], the “protective response in the mice (SBA titer of >1000 correlates with protection)” value (“protective response in the mice” for short) was “protective response”. For the same compound, the “difference in SBA titer, immunization with a CpG oligo versus the compound” value in assay [1] (mice, by p-value) is on record as “did not produce a statistically significant difference”.

In the case of `COc1ccc(CCc2cnc3c(N)nc4cc(C)ccc4c3c2)c(C)c1` [Example 49, 2-(4-methoxy-2-methylphenethyl)-8-methylbenzo[f][1,7]naphthyridin-5-amine], the “protective response in the mice” value in assay [1] is recorded as “protective response”.

For the compound `Cc1ccc2c(c1)nc(N)c1ncc(CCc3ccc(N(C)C)cc3)cc12` [Example 169, 2-(4-(dimethylamino)phenethyl)-8-methylbenzo[f][1,7]naphthyridin-5-amine], in assay [1], the “protective response in the mice” value was “protective response”.
